The text below walks through data of US5177240A, “o-Phosphono(alkyl)-N-sulfonyl-phenyl-alanine derivatives useful as intermediates for preparation of phosphono-hydroisoquinolines” (G. D. Searle & Co., priority 1990, dated 1993).

Some results are limits rather than exact numbers.

The target in assay [1] is NMDA receptor. Nature of the assay: NMDA receptor binding assay (NMDA-specific L-[3H]-glutamate binding, synaptic plasma membranes). Conditions: 12.5 nM L-[3H]-glutamate, pH 7.4, 0-4° C., 10 min. The procedure: Synaptic plasma membranes (SPM) were prepared as previously described Monahan, J. B. and Michel, J., "Identification and Characterization of an N-methyl-D-aspartate-specific L-[^3 H]-glutamate Recognition Site in Synaptic Plasma Membranes, J. Neurochem., 48, 1699-1708 (1987)]. The SPM were stored at a concentration of 10-15 mg/ml in 0.32M sucrose, 0.5 mM EDTA, 1 mM MgSO4, 5 mM Tris/sulfate, pH 7.4, under liquid nitrogen. The identity and purity of the subcellular fractions were confirmed by both electron microscopy and marker enzymes. Protein concentrations were determined by using a modification of the method of Lowry [Ohnishi, S. T. and Barr, J. K., "A Simplified Method of Quantitating Proteins Using the Biuret and Phenol Reagents", Anal. Biochem., 86, 193-197 (1978)]. The SPM were treated identically for the [^3 H]AMPA (QUIS), [^3 H]kainate and sodium-dependent L-[^3 H]-glumatate binding assays. The SPM were thawed at room temperature, diluted twenty-fold with 50 mM Tris/acetate, pH 7.4, incubated at 37° C. for 30 minutes, and centrifuged at 100,000 g for 15 minutes. The dilution, incubation and centrifugation were repeated a total of three times. Prior to use in the NMDA-specific L-[^3 H]-glutamate binding assay, the SPM were thawed, diluted twenty fold with 50 mM Tris/acetate (pH 7.4 containing 0.04% (v/v) Triton X-100), incubated for 30 minutes at 37° C. and centrifuged as described above. The Triton X-100 treated membranes were washed with 50 mM Tris/acetate (pH 7.4) and centrifuged at 100,000 g for 15 minutes a total of four times. The basic procedure for the receptor subclass binding assays was similar. This general method involved adding the radioligand (12.5 nM L-[^3 H]-glutamate; 0.5 nM [^3 H]kainate or 10nM [^3 H]AMPA) to the appropriate concentration of the test compound and initiating the assay by the addition of ice cold synaptic plasma membranes (0.2-0.45 mg). The binding assays were performed in 1.5 mL centrifuge tubes with the total volume adjusted to 1.0 mL. Additions of test compounds were made in 50 mM Tris/acetate (pH 7.4) and incubations were carried out at 0°-4° C. The incubation time for each of the NMDA and the AMPA binding assays was 10 minutes, for the kainate binding assay 60 minutes and for the sodium-dependent glutamate binding assay 15 minutes. The AMPA binding assay contained 100 mM KSCN and the sodium-dependent glutamate binding assay contained 150 mM sodium acetate in addition to the previously described reagents. To terminate the incubation, the samples were centrifuged for 15 minutes at 12,000 g and 4° C. in a Beckman Microfuge 12. The supernatant was aspirated and the pelleted membranes dissolved in Beckman BTS-450 tissue solubilizer for a minimum of 6 hours at room temperature. Beckman MP scintillation cocktail containing 7 mL/L acetic acid was then added and the samples counted on a Beckman LS 5800 or 3801 liquid scintillation counter with automatic corrections for quenching and counting efficiency. Nonspecific binding was defined as the residual binding in the presence of either excess L-glutamate (0.1-0.4 mM), kainate (0.01 mM), or NMDA (0.5 mM), and was 15-25% of the total binding in the NMDA binding assay, 19-27% in the AMPA binding assay, 20-30% in the kainate binding assay and 10-15% in the sodium-dependent binding assay. Radioligand binding to the synaptic plasma membranes was analyzed using Scatchard and Hill transformations and the Ki values of the compounds determined using logit-log transformations. Calculations and regression analysis were performed using templates developed for Lotus 1, 2, 3 as previously described [Pullan, L. M. "Automated Radioligand Receptor Binding Analysis with Templates for Lotus", Computer Appln. Biosci., 3 131 (1987)]. Binding results are reported in Table II for example compounds of the invention. Included in Table II are binding data for D,L-AP7[D,L-2-amino-7-phosphonoheptanoic acid].

Assay [2] concerns the target Quis (quisqualate) receptor. Description: Quisqualate (QUIS) receptor binding assay ([3H]AMPA, synaptic plasma membranes). Conditions: 10 nM [3H]AMPA, 100 mM KSCN, pH 7.4, 0-4° C., 10 min; read-out: NMDA receptor binding Ki, Quis. The procedure: (§1) Synaptic plasma membranes (SPM) were prepared as previously described Monahan, J. B. and Michel, J., "Identification and Characterization of an N-methyl-D-aspartate-specific L-[^3 H]-glutamate Recognition Site in Synaptic Plasma Membranes, J. Neurochem., 48, 1699-1708 (1987)]. The SPM were stored at a concentration of 10-15 mg/ml in 0.32M sucrose, 0.5 mM EDTA, 1 mM MgSO4, 5 mM Tris/sulfate, pH 7.4, under liquid nitrogen. The identity and purity of the subcellular fractions were confirmed by both electron microscopy and marker enzymes. Protein concentrations were determined by using a modification of the method of Lowry [Ohnishi, S. T. and Barr, J. K., "A Simplified Method of Quantitating Proteins Using the Biuret and Phenol Reagents", Anal. Biochem., 86, 193-197 (1978)]. The SPM were treated identically for the [^3 H]AMPA (QUIS), [^3 H]kainate and sodium-dependent L-[^3 H]-glumatate binding assays. The SPM were thawed at room temperature, diluted twenty-fold with 50 mM Tris/acetate, pH 7.4, incubated at 37° C. for 30 minutes, and centrifuged at 100,000 g for 15 minutes. The dilution, incubation and centrifugation were repeated a total of three times. Prior to use in the NMDA-specific L-[^3 H]-glutamate binding assay, the SPM were thawed, diluted twenty fold with 50 mM Tris/acetate (pH 7.4 containing 0.04% (v/v) Triton X-100), incubated for 30 minutes at 37° C. and centrifuged as described above. The Triton X-100 treated membranes were washed with 50 mM Tris/acetate (pH 7.4) and centrifuged at 100,000 g for 15 minutes a total of four times. The basic procedure for the receptor subclass binding assays was similar. […] Beckman MP scintillation cocktail containing 7 mL/L acetic acid was then added and the samples counted on a Beckman LS 5800 or 3801 liquid scintillation counter with automatic corrections for quenching and counting efficiency. […] Radioligand binding to the synaptic plasma membranes was analyzed using Scatchard and Hill transformations and the Ki values of the compounds determined using logit-log transformations. […]

For assay [3], the target named is KA (kainate) receptor. Description: Kainate (KA) receptor binding assay ([3H]kainate, synaptic plasma membranes). The settings on record: 0.5 nM [3H]kainate, pH 7.4, 0-4° C., 60 min. The protocol:
as §1, with “assays.” for “assays. The SPM were thawed at room temperature, diluted twenty-fold with 50 mM Tris/acetate, pH 7.4, incubated at 37° C. for 30 minutes, and centrifuged at 100,000 g for 15 minutes. The dilution, incubation and centrifugation were repeated a total of three times. Prior to use in the NMDA-specific L-[^3 H]-glutamate binding assay, the SPM were thawed, diluted twenty fold with 50 mM Tris/acetate (pH 7.4 containing 0.04% (v/v) Triton X-100), incubated for 30 minutes at 37° C. and centrifuged as described above. The Triton X-100 treated membranes were washed with 50 mM Tris/acetate (pH 7.4) and centrifuged at 100,000 g for 15 minutes a total of four times. The basic procedure for the receptor subclass binding assays was similar.”

Assay [4] deals with [3H]MK-801 receptor. Nature of the assay: MK-801 Modulation Assay ([3H]MK-801 binding, synaptic plasma membranes from rat forebrain). The settings on record: 2.0 nM [3H]MK-801, pH 7.4, 120 min, 25° C.; decrease in specific basal binding; read-out: IC50, inhibition of [3H]MK-801 binding. The protocol: [^3 H]MK-801 binding was performed using Triton X-100 washed synaptic plasma membranes (SPM) prepared from rat forebrain (30-45 day old, male Sprague-Dawley; Sasco, St. Charles, MO) as described previously [J. W. Thomas, W. F. Hood, J. B. Monahan, P. C. Contreras and T. L. O'Donohue, Brain Res., 442, 396-398 (1988)]. The assay was initiated by the addition of SPM (0.20-0.30 mg) to an incubation containing 2.0 nM [^3 H]MK-801 (15 Ci/mmole; New England Nuclear, Boston, MA) and various concentrations of the appropriate test compound in a total volume of 0.5 ml (all additions were made in 50mM Tris/acetate buffer, pH 7.4) and continued for 120 min at 25° C. The samples were then filtered through glass fiber filters (Schleicher and Schuell #32) which were pretreated with 0.05% (v/v) polyethylenimine. The filters were washed and the radioactivity quantitated by liquid scintillation spectrometry. Inhibition of [^3 H]MK-801 binding was measured as a decrease in specific basal binding (basal binding=2583 ±381 DPM) with nonspecific binding as the residual binding in the presence of 60 μM MK-801 (562 ±30 DPM).

Assay [5] relates to [3H]glycine binding. Description: Glycine Binding Assay ([3H]glycine, synaptic plasma membranes from rat forebrain). Conditions: 10 nM [3H]glycine, pH 7.4. The procedure: Synaptic plasma membranes (SPM) were prepared from rat forebrain and stored as previously described [J. B. Monahan and J. Michel, J. Neurochem., 48, 1699-1708 (1987)]. Frozen membranes were thawed and diluted 1:20 with 0.04% Triton X-100 in 50 mM Tris/acetate (pH 7.4). Following incubation at 37° C. for 30 min., the SPM were collected by centrifugation at 95,000×g for 15 min. The pellet was resuspended in 50 mM Tris/acetate (pH 7.4, Triton-free) and hand-homogenized five times. The membranes were again centrifuged as above. The pellet was washed two additional times with 50 mM Tris/acetate (without homogenization) and centrifuged. The final pellet was resuspended with homogenization in 50 mM Tris/acetate. In the general receptor binding assay procedure, 10 nM [^3 H]glycine was added to the appropriate concentration of the test compounds and the assay initiated by the addition of 0.2-0.4 mg of ice cold SPM. […] Beckman MP scintillation cocktail (5 ml) containing 7 ml/liter acetic acid was then added and the samples counted on a Beckman LS 5800 liquid scintillation counter with automatic corrections for quenching and counting efficiency. […] The binding of [^3 H]glycine to the SPM was analyzed using Scatchard and Hill transformations and the Ki for other compounds was determined using logit-log analysis. […]

Assay [6] has as its system TCP (1-[1-(2-thienyl)-cyclohexyl]piperidine) binding. Nature of the assay: TCP Modulation Assay ([3H]TCP binding, rat brain synaptic membranes). Conditions: 2 nM tritiated TCP, 0.05 mM L-glutamate, pH 7.4, 25° C., 60 min. The procedure: The effect on the TCP (1-[1-(2-thienyl)-cyclohexyl]piperidine) binding was measured in rat brain synaptic membranes (SPM) prepared as previously described [J. B. Monahan & J. Michel; J. Neurochem. 48:1699-1708 (1987)]. Prior to their use in the binding assay, frozen SPM were thawed, diluted twenty fold with 50 mM Tris/acetate (pH 7.4 containing 0.04% (v/v) Triton X-100), incubated for 30 min. at 37° C. and centrifuged at 95,000×g for 15 min. The Triton X-100 treated SPM were washed with 5 mM Tris/HCl, pH 7.4 and centrifuged a total of six times. The compound of Example II was incubated at different concentrations with SPM (0.2-0.4 mg protein) and 2 nM tritiated TCP, in a total volume of 0.5 ml of 5 mM Tris/HCl buffer pH 7.4 at 25° C. for 60 min. The samples were filtered through glass fiber filters (Schleicher & Schuell #32) which have been pretreated with 0.05% (v/v) polyethylenimine, washed 4 times with 2 ml of ice-cold 5 mM Tris/HCl buffer, and then counted on a Beckman LS 5800 liquid scintillation counter with automatic corrections for quenching and counting efficiency. Inhibition of TCP binding was measured as a decrease in the binding in the presence of 0.05 mM L-glutamate. Non-specific binding was defined as the residual binding in the presence of 60 […].

On to `NC(CCCCCP(=O)(O)O)C(=O)O` (racemic) [D,L-AP7, D,L-2-amino-7-phosphonoheptanoic acid], for which the inhibitory constant (Ki) in assay [1] is 5.4 µM; in assay [2] it was greater than 300 µM.
Molecule `O=C(O)C1Cc2c(cccc2P(=O)(O)O)CN1` (single isomer, unassigned) [Ex. 14] came in with a Ki in assay [1] of 3.1 µM.
The same measure, in the same setting: with `O=C(O)C1Cc2c(cccc2P(=O)(O)O)CN1` (single isomer, unassigned; (+)) [Ex. 13, (+)-3-carboxy-5-phosphono-1,2,3,4-tetrahydroisoquinoline] the figure was 0.9 µM.
For `N[C@H](CCCCCP(=O)(O)O)C(=O)O` [D-AP7], the Ki in assay [1] is 4 µM; in assay [2], greater than 300 µM.
Turning to `Cl.O=C(O)C1Cc2c(cccc2P(=O)(O)O)CN1` (centres unmarked) [Ex. 2, 3-carboxy-5-phosphono-1,2,3,4-tetrahydroisoquinoline hydrochloride], the “Kainate receptor binding Ki” value in assay [3] is listed as ~ 300 μM. Further, in assay [4], the IC50 stood at 0.48 µM. In addition, the “maximum inhibition of [3H]-glycine binding” value in assay [5] was “approximately 40%”. In addition, the IC20 in assay [5] (calculated, based on maximum inhibition of approximately 40%) is 1.9 µM. For the same molecule, the “inhibition of TCP binding” value in assay [6] (at 5 μM) came out at 64%; in assay [6] (at 50 μM), 91%. Besides, the Ki in assay [1] is 1.6 µM; in assay [2], greater than 300 µM.
In assay [1], `O=C(O)C1CC2=C(CC=CC2P(=O)(O)O)CN1` (centres unmarked) [Ex. 3, 3-carboxy-5-phosphono-1,2,3,4,5,8-hexahydroisoquinoline] yielded a Ki of 3 µM.
For the molecule `O=C(O)C1CC2=C(CCCC2P(=O)(O)O)CN1` (centres unmarked) [Ex. 4, 3-carboxy-5-phosphono-1,2,3,4,5,6,7,8-octahydroisoquinoline], the Ki in assay [1] came to 1.2 µM.
For `O=C(O)C1CC2C(CCCC2P(=O)(O)O)CN1` (centres unmarked) [Ex. 5], the IC50 in assay [4] came out at 1.38 µM. Moreover, in assay [1], affinity was put at a Ki of 1.6 µM.
Regarding `O=C(O)C1CC2C(CCCC2P(=O)(O)O)CN1` (centres unmarked) [Ex. 6], in assay [1], the affinity, expressed as Ki, was 11.2 µM.
As for `O=C(O)C1CC2C(CCCC2P(=O)(O)O)CN1` (centres unmarked) [Ex. 7], in assay [1], the Ki worked out at 1.3 µM.
Take `CCOC(=O)C1Cc2c(cccc2P(=O)(O)O)CN1` (centres unmarked) [Ex. 15, 5-phosphono-3-(ethoxycarbonyl)-1,2,3,4-tetrahydroisoquinoline]: the Ki in assay [1] is greater than 100 µM.
On the same count and under the same terms, with `Cc1ccc2c(c1P(=O)(O)O)CC(C(=O)O)NC2` (centres unmarked) [Ex. 16] the figure was 5.9 µM.
Still for that read-out and setting: with `O=C(O)C1Cc2c(cccc2CP(=O)(O)O)CN1` (centres unmarked) [Ex. 17, 3-carboxy-5-(phosphonomethyl)-1,2,3,4-tetrahydroisoquinoline] the figure was 18 µM.
